Measurements from patent publication US11161839B2, “2-quinolone derived inhibitors of BCL6” (Cancer Research Technology Limited, priority 2017, dated 2021).
Where two headings read alike, the source gives them in different places.

Legend:
[1] = target: BCL6-NCOR2(SMRT) corepressor protein-protein interaction (Homo sapiens (Human), UniProt P41182); experiment: NanoBRET cell assay in transfected HEK293T cells; type: cell-based; details: HEK293T cells, 6 hr; for IC50: read-out: NanoBRET cell pIC50 (converted)
[2] = target: human BCL6 BTB domain (Trx-6xHis-BCL6) (Homo sapiens (Human), UniProt P41182); experiment: HTRF in vitro assay (BCL6 BTB domain / BCOR-AF633 peptide); type: binding; details: for IC50: read-out: HTRF pIC50 (converted)
[3] = further generated data (Table 2b)
[4] = further generated data (Table 1b), 1 nM Trx-6xHis-BCL6, 0.5 nM anti-6xHis-Terbium cryptate
[5] = initially generated data (Table 1a), 10 nM Trx-6xHis-BCL6, 1 nM anti-6xHis-Terbium cryptate

| SMILES | IC50 [1, 3] | HTRF pIC50 [2, 4] | HTRF pIC50 [2, 5] | IC50 [2, 4] | NanoBRET cell pIC50 [1, 3] | IC50 ([1]; initially generated data (Table 2a)) |
| --- | --- | --- | --- | --- | --- | --- |
| CN(C)C(=O)C1CCN(c2ncc(Cl)c(Nc3ccc4c(c3)c(NC(C)(C)c3ncccn3)cc(=O)n4C)n2)CC1 [Example 16a, 1-(5-chloro-4-((1-methyl-2-oxo-4-((2-(pyrimidin-2-yl)propan-2-yl)amino)-1,2-dihydroquinolin-6-yl)amino)pyrimidin-2-yl)-N,N-dimethylpiperidine-4-carboxamide] | 2630 nM | 6.58 |  |  |  |  |
| CNC(=O)c1cc(Nc2ccc3c(c2)c(N[C@H](C)C2CC2)cc(=O)n3C)c(C#N)c(Cl)n1 [Example 10i, (R)-6-chloro-5-cyano-4-((4-((1-cyclopropylethyl)amino)-1-methyl-2-oxo-1,2-dihydroquinolin-6-yl)amino)-N-methylpicolinamide] | 1780 nM | 6.96 |  |  |  |  |
| Cc1cc(C)n(-c2ncc(Cl)c(Nc3ccc4c(c3)c(NC(C)c3ncn(C)n3)cc(=O)n4C)n2)n1 (centres unmarked) [Example 14b, 6-((5-chloro-2-(3,5-dimethyl-1H-pyrazol-1-yl)pyrimidin-4-yl)amino)-1-methyl-4-((1-(1-methyl-1H-1,2,4-triazol-3-yl)ethyl)amino)quinolin-2(1H)-one] | 8320 nM | 6.64 |  |  |  |  |
| COCCC1CCCN1C(=O)c1cc(Nc2ccc3c(c2)c(N[C@H](C)C2CC2)cc(=O)n3C)c(Cl)cn1 (some centres unmarked) [Example 15b] | 2190 nM | 6.46 |  |  |  |  |
| Cc1nc(-n2ccc(C(F)(F)F)n2)nc(Nc2ccc3c(c2)c(NC(C)(C)c2ncccn2)cc(=O)n3C)c1Cl [Example 14a, 6-((5-chloro-6-methyl-2-(3-(trifluoromethyl)-1H-pyrazol-1-yl)pyrimidin-4-yl)amino)-1-methyl-4-((2-(pyrimidin-2-yl)propan-2-yl)amino)quinolin-2(1H)-one] | 3890 nM | 6.66 |  |  |  |  |
| Cn1c(=O)cc(NC(C)(C)c2ncccn2)c2cc(Nc3nc(-n4ccc(C(F)(F)F)n4)ncc3Cl)ccc21 [Example 14d, 6-((5-chloro-2-(3-(trifluoromethyl)-1H-pyrazol-1-yl)pyrimidin-4-yl)amino)-1-methyl-4((2-(pyrimidin-2-yl)propan-2-yl)amino)quinolin-2(1H)-one] | 2040 nM | 6.44 |  |  |  |  |
| Cn1c(=O)cc(NC(C)(C)c2ncccn2)c2cc(Nc3cc(C(=O)N4CCC4)nc(Cl)c3C#N)ccc21 [Example 8a, 6-(Azetidine-1-carbonyl)-2-chloro-4-((1-methyl-2-oxo-4-((2-(pyrimidin-2-yl)propan-2-yl)amino)-1,2-dihydroquinolin-6-yl)amino)nicotinonitrile] | 550 nM | 7.78 |  |  |  |  |
| CC(Nc1nc(=O)n(C)c2ccc(Nc3nc(N4CCC(C(=O)N(C)C)CC4)ncc3Cl)cc12)c1ncccn1 (centres unmarked) [Example 12d, 1-(5-chloro-4-((1-methyl-2-oxo-4((1-(pyrimidin-2-yl)ethyl)amino)-1,2-dihydroquinazolin-6-yl)amino)pyrimidin-2-yl)-N,N-dimethylpiperidine-4-carboxamide] | 11200 nM | 6.78 |  |  |  |  |
| COC[C@@H]1CCCN1C(=O)c1cc(Nc2ccc3c(c2)c(NC(C)(C)c2ncccn2)cc(=O)n3C)c(C#N)c(Cl)n1 [Example 8e] | 676 nM |  |  | 28.2 nM |  |  |
| CCC(C)(COC)Nc1cc(=O)n(C)c2ccc(Nc3cc(C(=O)NC)nc(Cl)c3C#N)cc12 (centres unmarked) [Example 19f, 6-chloro-5-cyano-4-((4-((1-methoxy-2-methylbutan-2-yl)amino)-1-methyl-2-oxo-1,2-dihydroquinolin-6-yl)amino)-N-methylpicolinamide] | 2950 nM | 6.40 |  |  |  |  |
| COCC1CCN1c1ncc(Cl)c(Nc2ccc3c(c2)c(N[C@H](C)C2CC2)cc(=O)n3C)n1 (stereo partly drawn) [Example 26b, 6-((5-chloro-2-(2-(methoxymethyl)azetidin-1-yl)pyrimidin-4-yl)amino)-4-(((R)-1-cyclopropylethyl)amino)-1-methylquinolin-2(1H)-one: formic acid (1:1)] | 2690 nM | 6.31 |  |  |  |  |
| CNC(=O)c1cc(Nc2ccc3c(c2)c(NC(C)C2CC2)cc(=O)n3C)c(C#N)c(Cl)n1 (centres unmarked) [Example 7b, 6-chloro-5-cyano-4-((4-((1-cyclopropylethyl)amino)-1-methyl-2-oxo-1,2-dihydroquinolin-6-yl)amino)-N-methylpicolinamide] | 1120 nM |  |  | 288 nM |  |  |

Now from value to compound:

| IC50 [1, 3] | HTRF pIC50 [2, 4] | HTRF pIC50 [2, 5] | IC50 [2, 4] | NanoBRET cell pIC50 [1, 3] | IC50 ([1]; initially generated data (Table 2a)) | SMILES |
| --- | --- | --- | --- | --- | --- | --- |
| 1260 nM | 7.56 |  |  |  |  | CC(Nc1cc(=O)n(C)c2ccc(Nc3ccnc(Cl)c3C#N)cc12)c1ncc(N2CCOCC2)cn1 (centres unmarked) [Example 10x, 2-chloro-4-((1-methyl-4-((1-(5-morpholinopyrimidin-2-yl)ethyl)amino)-2-oxo-1,2-dihydroquinolin-6-yl)amino)nicotinonitrile] |
| 3470 nM | 6.20 |  |  |  |  | COc1ncc(Cl)c(Nc2ccc3c(c2)c(N[C@H](C)C2CC2)cc(=O)n3C)n1 [Example 11e] |
| 7410 nM | 6.25 |  |  |  |  | CC(Nc1cc(=O)n(CC2CC2)c2ccc(Nc3ccnc(Cl)c3Cl)cc12)c1ncccn1 (centres unmarked) [Example 6g, 1-(cyclopropylmethyl)-6-[(2,3-dichloro-4-pyridyl)amino]-4-(1-pyrimidin-2-ylethylamino)quinolin-2-one] |
| 22400 nM | 6.73 | 6.63 |  |  |  | CC(Nc1cc(=O)n(CCN2C(=O)CCC2=O)c2ccc(Nc3ccnc(Cl)c3C#N)cc12)c1ncccn1 (centres unmarked) [Example 1c, 2-chloro-4-[[1-[2-(2,5-dioxopyrrolidin-1-yl)ethyl]-2-oxo-4-(1-pyrimidin-2-ylethylamino)-6-quinolyl]amino]pyridine-3-carbonitrile] |
| 5130 nM | 6.45 |  |  |  |  | CCC(C)(Nc1cc(=O)n(C)c2ccc(Nc3ccnc(Cl)c3C#N)cc12)c1ncccn1 (centres unmarked) [Example 24c, 2-chloro-4-((1-methyl-2-oxo-4-((2-(pyrimidin-2-yl)butan-2-yl)amino)-1,2-dihydroquinolin-6-yl)amino)nicotinonitrile] |
| 3390 nM | 6.78 |  |  |  |  | Cn1c(=O)cc(N[C@H](CO)C2CC2)c2cc(Nc3ccnc(Cl)c3C#N)ccc21 [Example 11a, (S)-2-chloro-4-((4-((1-cyclopropyl-2-hydroxyethyl)amino)-1-methyl-2-oxo-1,2-dihydroquinolin-6-yl)amino)nicotinonitrile] |
| 29500 nM |  |  | 891 nM |  |  | CNC(=O)c1cc(Nc2ccc3c(c2)c(NC(C)c2ncccn2)cc(=O)n3C)c(C#N)cn1 (centres unmarked) [Example 19c] |
| 5250 nM | 6.99 |  |  |  |  | CC(Nc1cc(=O)n(C)c2ccc(Nc3cc(C(=O)N(C)C)nc(Cl)c3C#N)cc12)c1ncccn1 (centres unmarked) [Example 19b] |
| 1780 nM | 6.48 |  |  |  |  | CC(Nc1cc(=O)n(C)c2ccc(Nc3nc(N4C[C@@H](C)O[C@@H](C)C4)ncc3Cl)cc12)c1ncccn1 (stereo partly drawn) [Example 17a, 6-((5-chloro-2-((2S,6R)-2,6-dimethylmorpholino)pyrimidin-4-yl)amino)-1-methyl-4-((1-(pyrimidin-2-yl)ethyl)amino)quinolin-2(1H)-one] |
| 1820 nM | 6.09 |  |  |  |  | C[C@@H](Nc1nc(=O)n(C)c2ccc(Nc3ccnc(Cl)c3Cl)cc12)C1CC1 [Example 6d, (R)-4-((1-cyclopropylethyl)amino)-6-((2,3-dichloropyridin-4-yl)amino)-1-methylquinazolin-2(1H)-one] |
| 3240 nM | 6.32 |  |  |  |  | CC(Nc1cc(=O)n(C)c2ccc(Nc3nc(NCc4cccnc4)ncc3Cl)cc12)c1ncccn1 (centres unmarked) [Example 17f, 6-((5-chloro-2-((pyridin-3-ylmethyl)amino)pyrimidin-4-yl)amino)-1-methyl-4((1-(pyrimidin-2-yl)ethyl)amino)quinolin-2(1H)-one:formic acid (1:1)] |
| 6760 nM | 6.33 |  |  |  |  | CC(=O)N(C)c1cc(Nc2ccc3c(c2)c(NC(C)c2ncccn2)cc(=O)n3C)c(Cl)cn1 (centres unmarked) [Example 21, N-(5-Chloro-4-((1-methyl-2-oxo-4-((1-(pyrimidin-2-yl)ethyl)amino)-1,2-dihydroquinolin-6-yl)amino)pyridin-2-yl)-N-methylacetamide] |
|  | 6.58 | 6.58 |  | 5.45 | 3550 nM | CC(Nc1cc(=O)n(CC2CCOCC2)c2ccc(Nc3ccnc(Cl)c3C#N)cc12)c1ncccn1 (centres unmarked) [Example 1d, 2-chloro-4-[[2-oxo-4-(1-pyrimidin-2-ylethylamino)-1-(tetrahydropyran-4-ylmethyl)-6-quinolyl]amino]pyridine-3-carbonitrile] |
| 4170 nM | 6.20 |  |  |  |  | CC(Nc1cc(=O)n(C)c2ccc(Nc3nc(N4CC5(CCOCC5)C4)ncc3Cl)cc12)c1ncccn1 (centres unmarked) [Example 17h, 6-((5-chloro-2-(7-oxa-2-azaspiro[3.5]nonan-2-yl)pyrimidin-4-yl)amino)-1-methyl-4((1-(pyrimidin-2-yl)ethyl)amino)quinolin-2(1H)-one:formic acid (1:1)] |
| 2820 nM | 6.20 |  |  |  |  | CC(Nc1cc(=O)n(C)c2ccc(Nc3nc(N4CCC(F)(F)CC4)ncc3Cl)cc12)c1ncccn1 (centres unmarked) [Example 17i, 6-((5-chloro-2-(4,4-difluoropiperidin-1-yl)pyrimidin-4-yl)amino)-1-methyl-4-((1-(pyrimidin-2-yl)ethyl)amino)quinolin-2(1H)-one] |
| 9330 nM | 6.38 |  |  |  |  | Cn1c(=O)cc(NC2(c3ncccn3)CCOC2)c2cc(Nc3ccnc(Cl)c3C#N)ccc21 (centres unmarked) [Example 19i, 2-chloro-4-((1-methyl-2-oxo-4-((3-(pyrimidin-2-yl)tetrahydrofuran-3-yl)amino)-1,2-dihydroquinolin-6-yl)amino)nicotinonitrile] |
